Test system: arteriovenous shunt model in rats
Experiment: Antithrombotic effect in an arteriovenous shunt model in rats
Assay type: in vivo
Experimental: a) Determination of the Antithrombotic Effect in an Arteriovenous Shunt Model in Rats Fasting male rats (strain: HSD CPB:WU) were anesthetized by intraperitoneal administration of a Rompun/Ketavet solution (12 mg/kg/50 mg/kg). Thrombi were generated in an arteriovenous shunt in which a thrombogenic thread was secured, based on the method described by P C Wong et al. (Wong […], Nguan O, Watson […]. […] For this purpose, the left jugular vein and the right carotid artery were exposed. An 8 cm-long polyethylene catheter (PE60, Becton-Dickinson), followed by a 6 cm-long Tygon tube (R-3606, ID 3.2 mm, Kronlab), which contained a roughened, thrombogenic nylon thread (60×0.26 mm, […]) made into a double loop, was secured in the artery. A 2 cm-long polyethylene catheter (PE60, Becton-Dickinson) was secured in the jugular vein and connected via a 6 cm-long polyethylene catheter (PE160, Becton-Dickinson) to the Tygon tube. The tubes were filled with physiological saline solution before the shunt was opened. The extracorporeal circulation was maintained for 15 minutes. The shunt was then removed, and the nylon thread with the thrombus was immediately weighed. The empty weight of nylon thread has been determined before the start of the test. The FXa inhibitor (such as rivaroxaban) was administered to the animals intravenously, and acetylsalicylic acid (ASA) and/or ADP receptor antagonist (such as clopidogrel) was administered orally by gavage before setting up the extracorporeal circulation.

[1] = doses [mg/kg]: Example 44 0.01 iv, Clopi + ASA 1 po + 3 po, triple 0.01 iv + 1 po + 3 po
[2] = doses [mg/kg]: Example 44 0.03 iv, Clopi + ASA 1 po + 3 po, triple 0.03 iv + 1 po + 3 po

SMILES: O=C(NC[C@H]1CN(c2ccc(N3CCOCC3=O)cc2)C(=O)O1)c1ccc(Cl)s1 [Example 44, 5-Chloro-N-({(5S)-2-oxo-3-[4-(3-oxo-4-morpholinyl)phenyl]-1,3-oxazolidin-5-yl}methyl)-2-thiophencarboxamide]
- Antithrombotic effect (assessment in words) [1]: No effect
- Thrombus reduction [%] [1]: 18%
- Antithrombotic effect (assessment in words) [2]: No effect
- Thrombus weight reduction [%] [2]: 20%
- Antithrombotic effect, summary of Table 1 in words (doses of Table 1): ineffective

Source: US20160303138A1, “Combination Therapy Of Substituted Oxazolidinones” (Bayer Intellectual Property GMBH, priority 2006, published 2016)
